The numbers were not newly measured in patent publication US20240408079A1, “COMPOSITIONS AND METHODS FOR THE TREATMENT OF CANCER” (THE TRANSLATIONAL GENOMICS RESEARCH INSTITUTE, priority 2021, published 2024), which cites them from elsewhere.

Data set [1] concerns EWS-FLI. The conditions noted are these: preclinical studies.
For data set [2] the following is noted: preclinical studies, in vivo.
The test system of data set [3] is ES cell lines. The note with it: multiple ES cell lines.

Regarding `C/C(=N\NC(=O)c1cccc(S(=O)(=O)N2CCOCC2)c1)c1cc(Cl)ccc1O` [SP-2509], in data set [1], the “transcriptional profiles driven by EWS-FLI” value is given as “reverse the transcriptional profiles” and the tumorigenesis in vitro entry is reported as “significantly delay tumorigenesis”.
Take Seclidemstat [SP-2577]: the antitumoral activity entry in data set [2] is given as “little antitumoral activity in vivo”. For the same compound, the “tissue culture cell viability” value in data set [3] is “ability to impair tissue culture cell viability”. Further, in data set [1], the “transcriptional profiles driven by EWS-FLI” value is listed as “reverse the transcriptional profiles” and the tumorigenesis in vitro entry is “significantly delay tumorigenesis”.
